Laboratory results: patent EP0300397A2, “Hydroxy-, Alkoxy- and Benzyloxy substituted phospholipids, a process for their preparation and their use as medicaments” (HOECHST-ROUSSEL PHARMACEUTICALS INCORPORATED, priority 1987, dated 1989)
Counter-ions that a name gives are not always drawn.

Molecular target: T1, phospholipase A₂ isolated from rat perotoneum (Rattus norvegicus, UniProt P14423)
T1 construct: Enzyme-containing exudate was aspirated through an abdominal incision; Separation of the enzyme from the exudate was accomplished by centrifugation; from tissue; host or cells: peritoneal exudate of casein-injected male Wistar rats
T1 sequence (P14423 22-146): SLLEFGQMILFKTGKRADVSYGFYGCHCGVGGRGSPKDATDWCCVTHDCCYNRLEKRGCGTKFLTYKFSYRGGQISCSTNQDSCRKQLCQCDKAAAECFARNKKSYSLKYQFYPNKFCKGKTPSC
Assay: phospholipase A₂ inhibition, spectrophotometric assay with Thio Pc Substrate (modified Hendrickson et al. procedure)
Format: biochemical
Details: for IC50: concentration of inhibitor which reduces enzymatic activity by 50̸%, printed in the column % PLA₂ Inhibition; for inhibition at 100 µM: @ 1.0̸ x 10̸⁻⁴M, read-out: % PLA₂ Inhibition
Experimental: The substrate employed in the modified assay, was 1,2-bis(decanoylthio)-1,2-­dideoxyglycerol-3-phosphocholine (hereinafter "Thio Pc Substrate"). The enzyme utilized in the procedure was phospholipase A₂ isolated from rat perotoneum as follows:
Male Wistar rats weighing 200-300 g a piece were injected interperitoneally at a dosage of 50 ml/kg of body weight (20 g of casein as the sodium salt diluted to 500 ml in distilled water). After a period of 18-24 hours the animals were sacrificed. Thereafter, each animal was injected interperitoneally with 30 ml of an isotonic salt solution to which sodium heparin was added prior to use at a concentration of 5 units/ml. Enzyme-containing exudate was aspirated through an abdominal incision. Separation of the enzyme from the exudate was accomplished by centrifugation.
Pursuant to the assay procedure, Thio Pc Substrate was apportioned into 1.25 mg aliquots. To each aliquot was added 4 ml of 160 mM tris hydrogen chloride buffer (pH 7.5) containing 2mM of calcium chloride and 2mM of sodium taurocholate. The resulting dispersions were vortexed at room temperature to clear solutions. Inhibition activity of the alkylphospholipids of this invention was determined utilizing spectrophotometric samples prepared by the addition of 5 µl of 4,4′-dithiopyridine and 395 ml of buffered Thio Pc substrate to a perincubated dispersion of 50 µl of alkylphospholipid (appropriately diluted in buffer) in 50 µl of enzyme (appropriately diluted in buffer). Absorbence at (0.5 full scale ) was recorded at a chart speed of 2 cm/min on a Gilford Model 250 Spectrophotometer.
The percentage of phospholipase A₂ inhibition was calculated by means of the following formula: [formula] wherein "inhibitor slope" is the slope of the spectrophotometric curve obtained for a given alkylphospholipid-containing sample and 'control slope" is the slope of the spectrophotometric curve obtained for an otherwise identical sample lacking an inhibitor.

Structure (SMILES)	IC50	inhibition at 100 µM
CCCCCCCCCCCCCCCCCC(CCCOP(=O)([O-])OCC[N+](C)(C)C)OCc1ccccc1 (centres unmarked) [4-Hydroxy-N,N,N-trimethyl-9-phenylmethoxy-3,5-dioxa-4-phosphahexacosan-1-aminium, 4-oxide, hydroxide, inner salt monohydrate]	84 µM	–
CCCCCCCCCCCCCCCC(CCCOP(=O)([O-])OCC[N+](C)(C)C)OCc1ccccc1 (centres unmarked) [4-Hydroxy-N,N,N-trimethyl-9-phenylmethoxy-3,5-dioxa-4-phosphatetracosan-1-aminium, 4-oxide, hydroxide, inner salt monohydrate]	–	41.8%
CCCCCCCCCCCCCCCC(O)CCCOP(=O)([O-])OCC[N+](C)(C)C (centres unmarked) [4,9-Dihydroxy-N,N,N-trimethyl-3,5-dioxa-4-phosphatetracosan-1-aminium, hydroxide, inner salt sesquihydrate]	–	45.6%
CCN(CC)CCCC(C)Nc1c2ccc(Cl)cc2nc2ccc(OC)cc12 (centres unmarked) [Quinacrine, reference compound]	31 µM	–
CCCCCCCCCCCCCCCCC(O)CCCOP(=O)([O-])OCC[N+](C)(C)C (centres unmarked) [4,9-Dihydroxy-N,N,N-trimethyl-3,5-dioxa-4-phosphopentacosan-1-aminium, 4-oxide, hydroxide, inner salt monohydrate]	95 µM	–
